According to patent US7989466B2, “Methods to inhibit or augment an inflammatory response” (Cambridge Enterprise Limited, priority 1999, dated 2011):
Read-outs that look alike come from different tables or passages of the source. Marks after values point to notes of the source that are not given here. Positions of bridges follow the written chain, without caps; N, C: chain ends. Non-standard residues stand in square brackets, D forms with d. Residues, ends and D or L forms follow the SMILES beside them. No end group written: not given here.

What was measured:
Type in all cases: cell-based, human
[1] = test system: chemokine-induced THP-1 migration; assay: THP-1 trans-well migration assay, panel of chemokines (MCP-1, MIP1α, IL-8, SDF1α); conditions: for effect on THP-1 migration induced by the chemokine panel, in words: IL-8, SDF1α; for CC SPECIFICITY: average inhibitory ED50 versus SDF1 and IL8 divided by average inhibitory ED50 versus MCP-1 and MIP1α
[2] = test system: MIP1α induced THP-1 migration; assay: THP-1 trans-well migration assay, MIP1α as chemoattractant; conditions: for % inhibition at 100 μM versus MIP1α, THP-1 migration: n.s. = no statistically significant inhibition
Method in brief: (§1)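 5×10^4 THP-1 cells with serially diluted peptide in upper chamber, 5 µm filter, recombinant human chemokine 50 ng/ml (5.9 nM) in lower chamber. Incubated 4 h at 37 °C. Migrated cells counted by MTT staining, A595 read against a THP-1 standard curve.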

[3] = test system: MCP-1 induced THP-1 migration; assay: THP-1 trans-well migration assay, MCP-1 as chemoattractant; conditions: for % inhibition at 100 μM versus MCP-1, THP-1 migration: agent with the cells, n.s. = no statistically significant inhibition
Method in brief: as §1

[4] = test system: IL8 induced THP-1 migration; assay: THP-1 trans-well migration assay, IL-8 as chemoattractant; conditions: for % inhibition at 100 μM versus IL8, THP-1 migration: n.s. = no statistically significant inhibition
Method: To determine whether an agent inhibits a chemokine-induced activity, such as macrophage recruitment, varying amounts of the agent are mixed with cells in the presence of a known chemoattractant. For example, a range of known concentrations of an agent, e.g., a chemokine peptide, is incubated with a defined number (e.g., 10^4-10^6) of human THP-1 monocyte cells in individual wells of the top compartment of a trans-well plate. Chemokine (such as MCP-1, MIP1α, IL8 or SDF-1α), at a concentration known to cause significant migration of THP-1 cells in the trans-well migration assay, is placed in the lower compartment (FIG. 1). Cells are then incubated at 37° C. for a period sufficient to allow migration, e.g., 4 hours. After incubation, the cells are gently removed from the top of the filter with a pipette, 20 μl of 20 mM EDTA in simple PBS is added into each top well, and incubated for 20 minutes at 4° C. The filter is carefully flushed with media using a gentle flow, and removed. A standard curve consisting of a two-fold dilution series of THP-1 cells (in 29 μl) is prepared to accurately quantify the number of cells that have migrated. Migrated cells are stained with 3 μl of MTT stock dye solution which is added directly into each well (5 mg/ml in RPMI-1640 without phenol red, Sigma Chemical Co.) and incubated at 37° C. for 4 hours. The media is carefully aspirated from each well, and the converted dye is solubilized by 20 μl of DMSO. Absorbance of converted dye is measured at a wavelength of 595 nm using an ELISA plate reader. The number of migrated cells in each well is then determined by interpolation of the standard curve (see also Imai et al., J. Biol. Chem., 272, 15036 (1997)).
For this assay, THP-1 cells were maintained at a density of 4×10^5 cells per ml in RPMI-1640 supplemented with 10% fetal calf serum+20 μM 2-mercaptoethanol. Chemotaxis was induced in a 96-well disposable chemotaxis chamber fitted with a […] polycarbonate filter (PVP free, ChemoTX, Neuroprobe Inc., Cabin John). Twenty-nine μl of chemoattractant (recombinant human chemokine; 50 ng/ml, i.e., 5.9 nM) or control (100 ng/ml TGFβ) was added to the lower compartment of each well. The framed filter was aligned with the holes in the corner of the filter frame and placed over the wells. Five×10^4 THP-1 cells in 25 μl of RPMI-1640 were added to the upper compartment. Peptides were dissolved in Milli Q water and then serially diluted in culture medium. In most cases, the serially diluted peptides were added to the upper compartment of the chemotaxis chamber. The chamber was incubated at 37° C. in a humidified atmosphere of 5% CO2 for 4 hours.
After incubation, the cells were gently removed from the top of the filter with a pipette, 20 μl of 20 mM EDTA in PBS was added into each top well, and the mixture was incubated for 20 minutes at 4° C. The filter was then carefully flushed with media using a gentle flow, and removed. A standard curve was prepared to accurately quantify the number of THP-1 cells that had migrated. The curve was based on a two-fold dilution series of THP-1 cells (top standard 100,000 cells in 29 μl). Cells which had migrated, and in separate wells, the cells in the standards, were stained with 3 μl of MTT stock solution which was added directly into each well (5 mg/ml in RPMI 1640 without phenol red, Sigma Chemical Co.) and incubated at 37° C. for 4 hours. The media was carefully aspirated from each well, and the converted dye was solubilized by 20 μl of DMSO. Absorbance of converted dye was measured at a wavelength of 595 nm using an ELISA plate reader. The number of cells that had migrated in each well was determined by interpolation of the standard curve.

[5] = test system: SDF-1α induced THP-1 migration; assay: THP-1 trans-well migration assay, SDF-1α as chemoattractant; conditions: for % inhibition at 100 μM versus SDF-1α, THP-1 migration: n.s. = no statistically significant inhibition
Method in brief: as §1

[6] = test system: TGFβ1 induced THP-1 migration; assay: THP-1 trans-well migration assay, TGFβ1 as non-chemokine control; conditions: for ED50 versus TGFβ1, inhibition of THP-1 migration: n.s. = no statistically significant inhibition (p > 0.05); for % inhibition at 100 μM versus TGFβ1, THP-1 migration: n.s. = no statistically significant inhibition
Method: Any method suitable for counting cells can be used, for example, counting with a hemocytometer, incubation of the cells with MTT (see above), or FACS analysis. A negative control assay is also performed, using TGF-β or another non-chemokine chemoattractant (e.g., IL1β or TNFα). To assess whether the agent is cytotoxic, the same concentrations of agent are incubated with THP-1 cells. Agents which 1) are not cytotoxic at levels which inhibit migration, 2) are ineffective at inhibiting the negative control-induced migration, and 3) reduce or inhibit chemokine-induced THP-1 migration, are agents which fall within the scope of the invention.
Chemotaxis was induced in a 96-well disposable chemotaxis chamber fitted with a […] polycarbonate filter (PVP free, ChemoTX, Neuroprobe Inc., Cabin John). […] The framed filter was aligned with the holes in the corner of the filter frame and placed over the wells. […] Peptides were dissolved in Milli Q water and then serially diluted in culture medium. In most cases, the serially diluted peptides were added to the upper compartment of the chemotaxis chamber. The chamber was incubated at 37° C. in a humidified atmosphere of 5% CO2 for 4 hours.
After incubation, the cells were gently removed from the top of the filter with a pipette, 20 μl of 20 mM EDTA in PBS was added into each top well, and the mixture was incubated for 20 minutes at 4° C. The filter was then carefully flushed with media using a gentle flow, and removed. […] The curve was based on a two-fold dilution series of THP-1 cells (top standard 100,000 cells in 29 μl). […] The media was carefully aspirated from each well, and the converted dye was solubilized by 20 μl of DMSO.

[7] = n.s. = no statistically significant inhibition (p > 0.05)
[8] = ns = not significantly different from control

CC[C@@H](C)[C@H]1NC(=O)[C@@H](CCC(N)=O)NC(=O)[C@H](N)CSSC[C@H](C(N)=O)NC(=O)[C@@H](CC(C)C)NC(=O)[C@@H](CC(=O)O)NC(=O)[C@H]2CCCN2C(=O)[C@@H](CCCCN)NC(=O)[C@@H](CCC(N)=O)NC(=O)[C@@H](CCCCN)NC(=O)[C@@H](Cc2c[nH]c3ccccc23)NC1=O (H-[dC][dQ][dI][dW][dK][dQ][dK][dP][dD][dL][dC]-NH2; disulfide 1-11; N-terminus assumed)
effect on THP-1 migration induced by the chemokine panel, in words ([1]; MCP-1, MIP1α): inhibited THP-1 cell migration induced by MCP-1, MIP1α, IL-8, and SDF1, with very similar ED50s
shift of the MIP-1α dose response curve to higher concentrations ([2]; sub-maximal dose of inhibitor in the upper chamber): 5-100 fold
IC50 ([3]; read-out: MCP-1 inhibitory activity in the THP-1 transwell assay): 0.005 to 0.1 µM

C=CCCCCCCCCC(=O)N[C@H]1CCC(=O)NC1=O [A-I (NR58.4), [3S]-3-(undec-10-enoylamino)piperidine-2,6-dione]
EC50 ([4]; Homo sapiens, THP-1, read-out: ED50, IL-8 chemotaxis assay): < 0.01 µM
EC50 ([2]; Homo sapiens, THP-1, read-out: ED50, MIP1α chemotaxis assay): 0.0002 µM
EC50 ([5]; Homo sapiens, THP-1, read-out: ED50, SDF1α chemotaxis assay): 0.008 µM
EC50 ([3]; listed as NR58.4 (A-I), read-out: ED50 versus MCP-1 induced chemotaxis of THP-1): 0.002 µM

NCCCC[C@H](NC(=O)[C@H](CCC(N)=O)NC(=O)[C@@H](N)CCCCN)C(=O)O [KQK]
ED50 versus IL8, inhibition of THP-1 migration [4, 7]: n.s.
specificity for the cognate chemokine over all the other chemokines tested ([1]; KQK MCP-1, SEE MIP1-α): more than 100 fold
Chemokine antagonist ([1]; active against at least one of IL-8, SDF-1α, MCP-1, MIP1α): +++++
CC SPECIFICITY [1]: >100
EC50 ([1]; footnote f, KQK MCP-1, SEE MIP1α, KLK SDF1, KEN IL8, read-out: ED50 of a tripeptide against the one chemokine it is highly specific for): 6 µM
ED50 versus MIP1α, inhibition of THP-1 migration [2, 7]: n.s.
ED50 versus SDF-1α, inhibition of THP-1 migration [5, 7]: n.s.
percentage inhibition of migration induced by SDF1α ([5]; tripeptide at 100 μM, mean ± range, dash = no statistically significant reduction in migration): 29 ± 1%
ED50 versus TGFβ1, inhibition of THP-1 migration [6]: n.s.
percentage inhibition of migration induced by MCP-1 ([3]; tripeptide at 100 μM, mean ± range of two experiments, dash = no statistically significant reduction in migration): 95 ± 8^b %

EICADPKQKWVQ [peptide 3(1-12)[MCP-1]]
% inhibition at 100 μM versus IL8, THP-1 migration [4]: 103%
EC50 ([4]; n.s. = no statistically significant inhibition (p > 0.05), read-out: ED50 versus IL8, inhibition of THP-1 migration): 14 ± 1 µM
% inhibition at 100 μM of migration induced by any of the chemokines tested ([1]; 100 μM, THP-1): > 99%
EC50 ([1]; average inhibitory ED50 for inhibition of THP-1 migration induced by each of the chemokines, read-out: AVERAGE ED50): 10 µM
CC SPECIFICITY [1]: 1.5
selectivity ratio (CC versus CXC chemokines) ([1]; greater than 1 = greater inhibition of CC chemokines relative to CXC chemokines): 1.5
% inhibition at 100 μM versus MIP1α, THP-1 migration [2]: 99%
EC50 ([2]; n.s. = no statistically significant inhibition (p > 0.05), read-out: ED50 versus MIP1α, inhibition of THP-1 migration): 8 ± 1 µM
% inhibition at 100 μM versus SDF-1α, THP-1 migration [5]: 107%
EC50 ([5]; n.s. = no statistically significant inhibition (p > 0.05), read-out: ED50 versus SDF-1α, inhibition of THP-1 migration): 10 µM
% inhibition at 100 μM versus TGFβ1, THP-1 migration [6]: n.s.
ED50 versus TGFβ1, inhibition of THP-1 migration [6]: n.s.
% inhibition at 100 μM versus MCP-1, THP-1 migration ([3]; 100 μM): > 99%
% inhibition at 100 μM versus MCP-1, THP-1 migration ([3]; 100 μM, listed as Peptide 3 (SEQ ID NO: 1)): 112%
% inhibition of MCP-1 induced migration at 100 μM, peptide with the chemokine in the lower compartment ([3]; 100 μM, lower compartment): 17%
EC50 ([3]; agent with the cells in the upper compartment, n.s. = no statistically significant inhibition (p > 0.05), read-out: ED50 versus MCP-1, inhibition of THP-1 migration): 8 ± 1 µM

SYRRITSSKCPKEAV [peptide 2(1-15)[MCP-1]]
% inhibition at 100 μM versus IL8, THP-1 migration [4]: n.s.
ED50 versus IL8, inhibition of THP-1 migration [4, 7]: n.s.
effect on THP-1 migration induced by the chemokine panel, in words ([1]; MCP-1, MIP1α): no significant effect
% inhibition at 100 μM versus MIP1α, THP-1 migration [2]: n.s.
ED50 versus MIP1α, inhibition of THP-1 migration [2, 7]: n.s.
MIPIa ED-50 [2, 8]: ns
% inhibition at 100 μM versus SDF-1α, THP-1 migration [5]: n.s.
ED50 versus SDF-1α, inhibition of THP-1 migration [5, 7]: n.s.
SDF1a ED-50 [5, 8]: ns
% inhibition at 100 μM versus TGFβ1, THP-1 migration [6]: n.s.
ED50 versus TGFβ1, inhibition of THP-1 migration [6]: n.s.
% inhibition at 100 μM versus MCP-1, THP-1 migration ([3]; 100 μM, listed as Peptide 2 (SEQ ID NO: 3)): n.s.
% inhibition at 100 μM versus MCP-1, THP-1 migration ([3]; 100 μM, listed as Peptide 2[MCP-1]): 19%
ED50 versus MCP-1, inhibition of THP-1 migration ([3]; agent with the cells in the upper compartment, n.s. = no statistically significant inhibition (p > 0.05)): n.s.
MCP-1 ED-50 [3, 8]: ns
